What was measured:
[1] = tested on: crypts of the mouse small intestine; conditions: cited from earlier work; for i.p. dose that causes sterilization of 50% of crypts: dose-response data of Moore (1985)
[2] = tested on: intestinal crypts; assay: Model I: luminal delivery of cytotoxic drugs to clamped jejunal segment, crypt apoptosis by histology; type: in vivo, mouse; conditions: for apoptosis in experimental segments / apoptosis in upstream segments: luminal delivery to clamped jejunal segment for 4 hr, 20 mg/kg BW; for apoptosis in experimental segments: apoptotic bodies in H & E sections; for apoptosis in upstream segments: segment immediately upstream
Text: A surgical model was developed that is simple and rapid enough to allow appropriate numbers of animals to be studied in a reasonable time period. To this end, a procedure was developed in which a 1 cm piece of jejunum is flushed and then clamped (with microvascular serrefines), the drug or vehicle was delivered to the clamped segment via a 27 gauge needle, the bowel is returned to the abdominal cavity and the incisions in both the peritoneum and the skin are sutured closed. The animal was allowed to regain consciousness for 4-6 hr. At the end of this time there was another brief isofluorane anesthesia, during which the original incisions are opened and the clamps are removed. In addition, at this time the location of the clamps was indicated by a piece of 5-0 silk.
Various doses of DOX and Bleomycin were delivered to clamped segments for 4 hr, then tissue from the experimental segment as well as a segment immediately upstream was collected for histology. Tissue sections were stained with H & E, and apoptosis was assessed by the presence of apoptotic bodies. For quantifying apoptotic cells, 10 crypts per animal (n=3) were selected and scored by a skilled artisan blinded to the experimental conditions. […] Thus, Bleomycin was being absorbed into the circulation and, thus, affecting the entire intestine. In contrast, DOX appears to be capable of local action, thus creating a suitable model for subsequent experiments.
In order to verify that luminally delivered DOX was affecting the stem cell region, the position of apoptotic cells within the crypt was scored. […] This is very similar to the pattern that has been previously reported following IP delivery of DOX (Ijiri and Potten, 1987).

[3] = cited from earlier work
[4] = tested on: intestinal crypts; type: in vivo, mice
Procedure: The following model is preferable for luminal delivery of stem cell preparations, particularly wherein a second clamping procedure, such as the day after the damage, is preferable. As there are already published studies on IP delivery of DOX to mice (Ijiri and Potten, 1987; Moore, 1985), minimal additional studies were needed to establish this model. However, although it was already known that an IP dose of 20 mg/kg/BW DOX elicits apoptosis predominantly in the stem cell zone (Ijiri and Potten, 1987) and ablates approximately 50% of the stem cells (Moore, 1985), a complete time course of apoptosis has not been reported. Considering the nature of the timing of stem cell delivery, an apoptosis time course was performed in FIG. 6. […] In contrast, gross morphologic damage is not seen until 72 hr and appears maximal by 96 hr (FIG. 7). By 120 hr the beginning of crypt regeneration from the remaining stem cells is apparent (not shown). Based on these findings, after DOX the optimal time for luminal delivery of stem cells is 6 hr. […] At the same time, a significant proportion of the endogenous stem cells have been ablated, creating an opportunity for the exogenous cells to engraft. The clamping procedure after IP delivery of DOX has been performed successfully, and no evidence was found of gross bleeding into the clamped segment. There is, however, significant morbidity after the IP DOX. For example, body weights initially fall to a similar extent to that after luminal DOX, but in the case of IP DOX they never recover. Although our 10-day survival data after IP DOX is 100%, the literature predicts 40-50% mortality over the next 2 weeks (Oredipe et al., 2003). However, if the myelosuppressive effects of DOX are countered by administration of the drug Swainsonine (Sigma-Aldrich), for example the mice can be maintained until at least 70 days with only 36% mortality (Oredipe et al., 2003).

[5] = mouse, in vivo; cited from earlier work
[6] = cited from earlier work; remark: listed apart in the source
[7] = cited from earlier work; remark: listed apart in the source
[8] = mice; cited from earlier work
[9] = i.p. LD50 (literature); type: in vivo; conditions: mice
[10] = tested on: bone marrow; conditions: administered systemically (Goodman and Gilman, 1975); cited from earlier work

In the case of `COc1cccc2c1C(=O)c1c(O)c3c(c(O)c1C2=O)C[C@@](O)(C(=O)CO)C[C@@H]3O[C@H]1C[C@H](N)[C@H](O)[C@H](C)O1` [DOX, doxorubicin], the “small intestinal crypts sterilized” value ([1]; IP 20 mg/kg BW (Moore, 1985)) is listed as “approximately 50%”, the stem cells ablated ([1]; IP dose of 20 mg/kg/BW (Moore, 1985)) is listed as “approximately 50%” and the “i.p. dose that causes sterilization of 50% of crypts” value [1] is listed as 15 mg/kg. For the same compound, the “damage to the basement membrane or to the underlying stromal tissue” value ([2]; luminal DOX, light and EM levels) was “no evidence of damage”, the “apoptosis in experimental segments” value [2] was “significant apoptosis” and the “apoptosis in upstream segments” value [2] was “minimal effects”. For the same compound, the “solubility in normal saline” value [3] was “soluble in normal saline”, the “time of apoptosis peak” value ([4]; IP DOX 20 mg/kg BW) was 6 h and the “time of beginning of crypt regeneration from remaining stem cells” value ([4]; IP DOX 20 mg/kg BW) was no more than 120 h. For the same compound, the “time of maximal gross morphologic damage” value ([4]; IP DOX 20 mg/kg BW) was no more than 96 hr, the “time until gross morphologic damage is seen” value ([4]; IP DOX 20 mg/kg BW) was 72 hr and the “apoptosis by 24 hr” value ([4]; IP DOX 20 mg/kg BW, 24 hr) was “greatly reduced”. The body weights ([4]; mouse, in vivo, ip) was “never recover”, the 10-day survival ([4]; mouse, in vivo, ip, 10 day) was 100% and the half-life [5] was 35 min. The “mortality over the next 2 weeks” value ([6]; after IP DOX, beyond 10 days, literature prediction) was 40-50% and the “removed by the liver in a single pass” value [7] was 60%.
For `O[C@H]1[C@H]2[C@H](O)CCCN2C[C@H]1O` [Swainsonine], the “mortality until at least 70 days” value ([6]; Swainsonine given to counter myelosuppressive effects of DOX) is listed as 36%.
For Bleomycin, the “i.p. dose that causes sterilization of 50% of crypts” value [1] is given as 60 mg/kg, the “i.p. LD50” value [8] is given as 210 mg/kg and the “apoptosis in experimental segments” value [2] is given as “caused apoptosis”. The “apoptosis in upstream segments” value [2] was “caused apoptosis in both experimental segment and upstream segments”, the “solubility in normal saline” value [3] was “soluble in normal saline” and the “i.p. LD50 relative to i.p. dose causing sterilization of 50% of intestinal crypts” value [9] was roughly 4 fold. For the same compound, the “toxicity to bone marrow” value [10] was “minimal toxicity to bone marrow”.

Source: patent US20050256077A1, “Gastrointestinal stem cells and uses thereof” (priority 2004, published 2005)
